One series concerns the target T1, EIF2AK2 (Homo sapiens, UniProt P19525).
T1 construct: purchased DiscoverX
Kind of series: Kinase selectivity assay (DiscoverX KinomeScreen), EIF2AK2. The format is binding. Particulars: EIF2AK2, 5 μM; read-out: % Control. Here is the method:
(§1) The compound of Example 33 was tested for off-target activity against a panel of fifty five kinases bearing functional or structural similarity to PLK1 at a concentration of 5 μM using the DiscoverX KinomeScreen assay.

The test system of the next series is HeLa cells. Kind of series: Arresting cells in mitosis (Mitotic Index, phosphorylated Histone H3 immunofluorescence). The series is classed as cell-based. The conditions noted are these: Homo sapiens, HeLa; separate experiment; read-out: EC50 in the mitotic arrest assay. Here is the method:
Assay to Measure the Effects of Compounds of the Invention on Arresting Cells in Mitosis
Inhibiting the ability of PLK1 to bind to its phosphopeptide binding partners through the PBD causes cells to arrest in mitosis. Experimentally, this is measured by assessing the number of cells which are in mitosis at a certain time after treatment with a PLK1-PBD inhibitor by immunofluorescent detection of phosphorylated Histone H3 (pH3), a marker which is only present in mitotic cells. PLK1-PBD inhibitors are expected to cause a dose-dependent increase in pH3-positive cells, which is reported as Mitotic Index (MI)—the percentage of cells which, at a given time, are positive for this mitotic mark. The following protocol has been used to measure MI: • 1. Plate HeLa cells at 10,000/well in 100 μL/well in clear flat-bottom 96-well plates and incubate overnight. • 2. Immediately prior to treatment, dilute compounds in medium in a 96-well round-bottom plate. Make up all compounds at 5 times final desired concentration on cells, and serially dilute 1:2 across the plate ensuring that there is 100 μL of each concentration (start with 200 μl of the top concentration on the left of the plate). […] Treat cells by adding 25 μL from the compound dilution plate to triplicate wells. • 4. Incubate cells with compound for 24 hours. • 5. After 24 hours, fixation and staining is carried out as follows: • 6. Dilute 37% formaldehyde in PBS to give a 12.95% solution by adding 3.5 mL formaldehyde to 6.5 mL of PBS. • 7. Add 50 μL of formaldehyde fixation solution directly to each well of cells (which already contain 125 μL medium). • 8. Incubate at room temp for 10 minutes. • 9. Remove fixative and add 100 μL/well PBS+0.1% Triton X-100 for 10 minutes. • 10. Aspirate and add 100 μL/well PBS+1% BSA. • 11. Aspirate and add 50 μL/well of primary antibody (anti-PH3 [1:2000]/anti-MPM2 [1:1000]) diluted in PBS+1% BSA. Incubate for 1 hour. • 12. Wash×2 with 100 μL/well PBS+1% BSA. • 13. Add 50 μL/well of secondary antibody plus Hoechst stain (anti-rabbit Alexafluor 488 [1:500]; anti-mouse Alexafluor 546 [1:500]+Hoechst 33342 [1:2500 final concentration=4 μg/mL])diluted in PBS+1% BSA. Incubate for 1 hour. • 14. Wash twice with 100 μL/well PBS+1% BSA. • 15. Aspirate and add 100 μL/well PBS. Plates can be stored at 4° C. in PBS for several weeks before scanning on the Cellomics Arrayscan. […] Scan on Cellomics using Target Activation Bioapplication. • 17. MI data emerging from the Cellomic Bioapplication can be used to plot MI versus compound concentration, and subsequently used to generate an EC50 value for each compound using an appropriate graphing/curve-fitting package such as GraphPad Prism.

The target in a further series is T2, IKBKE (Homo sapiens, UniProt Q14164).
T2 construct: purchased DiscoverX
Kind of series: Kinase selectivity assay (DiscoverX KinomeScreen), IKBKE. The format is binding. Particulars: read-out: % Control. The method, then:
as §1

The subject of series [1] is glioblastoma cell line 906871. Briefly: Glioblastoma cancer cell viability, cell line 906871. The format is cell-based. Here is the method:
(§2) Assay to Measure the Effects of Compounds of the Invention on Glioblastoma Cancer Cell Viability
(§3) The compound of Example 33 was tested for inhibitory activity against the glioblastoma cell lines in Table 7 below.

The next series concerns the target T3, WEE2 (Homo sapiens, UniProt P0C1S8).
T3 construct: purchased DiscoverX
Kind of series: Kinase selectivity assay (DiscoverX KinomeScreen), WEE2. The series is classed as binding. Particulars: WEE2, 5 μM; read-out: % Control. The method, then:
as §1

The target of another series is T4, CAMKK2 (Homo sapiens, UniProt Q96RR4).
T4 construct: purchased DiscoverX
Briefly: Kinase selectivity assay (DiscoverX KinomeScreen), CAMKK2. The series is classed as binding. The conditions noted are these: CAMKK2, 5 μM; read-out: % Control. The method, then: as §1

Another series concerns the target T5, SBK1 (Homo sapiens, UniProt Q52WX2).
T5 construct: purchased DiscoverX
Briefly: Kinase selectivity assay (DiscoverX KinomeScreen), SBK1. The series is classed as binding. Particulars: SBK1, 5 μM; read-out: % Control. Here is the method: as §1

A further series has as its target T6, STK16 (Homo sapiens, UniProt O75716).
T6 construct: purchased DiscoverX
Briefly: Kinase selectivity assay (DiscoverX KinomeScreen), STK16. The series is classed as binding. Particulars: STK16, 5 μM; read-out: % Control. Here is the method: as §1

Series [2] is described as follows: Stability in human hepatocytes. The series is classed as in vitro ADME.
The target in the next series is cytochrome P450 2D6 (Homo sapiens, UniProt P10635). Briefly: Cytochrome P450 inhibition, 2D6. The format is in vitro ADME.
The next series has as its target T7, NEK11 (Homo sapiens, UniProt Q8NG66).
T7 construct: purchased DiscoverX
Briefly: Kinase selectivity assay (DiscoverX KinomeScreen), NEK11. The format is binding. The conditions noted are these: NEK11, 5 μM; read-out: % Control. The method, then:
as §1

A further series has as its target T8, ERN1 (Homo sapiens, UniProt O75460).
T8 construct: purchased DiscoverX
Kind of series: Kinase selectivity assay (DiscoverX KinomeScreen), ERN1. The series is classed as binding. Particulars: ERN1, 5 μM; read-out: % Control. The method, then: as §1

For series [3], the system named is glioblastoma cell line 907042. Kind of series: Glioblastoma cancer cell viability, cell line 907042. The format is cell-based. The method, then: as §2, §3
A further series addresses T9, ULK3 (Homo sapiens, UniProt Q6PHR2).
T9 construct: purchased DiscoverX
Kind of series: Kinase selectivity assay (DiscoverX KinomeScreen), ULK3. The series is classed as binding. Particulars: ULK3, 5 μM; read-out: % Control. Here is the method: as §1

Series [4] deals with glioblastoma cell line 946370. Briefly: Glioblastoma cancer cell viability, cell line 946370. The series is classed as cell-based. The method, then:
as §2, §3

For the next series, the target named is T10, ROCK2 (Homo sapiens, UniProt O75116).
T10 construct: purchased DiscoverX
Kind of series: Kinase selectivity assay (DiscoverX KinomeScreen), ROCK2. The series is classed as binding. Particulars: ROCK2, 5 μM; read-out: % Control. Here is the method:
as §1

For another series, the target named is T11, WNK1 (Homo sapiens, UniProt Q9H4A3).
T11 construct: purchased DiscoverX
Kind of series: Kinase selectivity assay (DiscoverX KinomeScreen), WNK1. The series is classed as binding. The conditions noted are these: WNK1, 5 μM; read-out: % Control. Here is the method: as §1

The target of another series is cytochrome P450 2C9 (Homo sapiens, UniProt P11712). Briefly: Cytochrome P450 inhibition, 2C9. The format is in vitro ADME.
The next series deals with T12, NEK3 (Homo sapiens, UniProt P51956).
T12 construct: purchased DiscoverX
Briefly: Kinase selectivity assay (DiscoverX KinomeScreen), NEK3. The series is classed as binding. Particulars: NEK3, 5 μM; read-out: % Control. The method, then:
as §1

The target of another series is T13, ULK1 (Homo sapiens, UniProt O75385).
T13 construct: purchased DiscoverX
Briefly: Kinase selectivity assay (DiscoverX KinomeScreen), ULK1. The format is binding. The conditions noted are these: ULK1, 5 μM; read-out: % Control. Here is the method: as §1

In the next series the target is T14, NEK4 (Homo sapiens, UniProt P51957).
T14 construct: purchased DiscoverX
Briefly: Kinase selectivity assay (DiscoverX KinomeScreen), NEK4. The format is binding. The conditions noted are these: NEK4, 5 μM; read-out: % Control. Here is the method:
as §1

Molecules are shown by their SMILES. Where a name gives a salt, the structure may show the parent alone.

T1 sequence (P19525 whole entry): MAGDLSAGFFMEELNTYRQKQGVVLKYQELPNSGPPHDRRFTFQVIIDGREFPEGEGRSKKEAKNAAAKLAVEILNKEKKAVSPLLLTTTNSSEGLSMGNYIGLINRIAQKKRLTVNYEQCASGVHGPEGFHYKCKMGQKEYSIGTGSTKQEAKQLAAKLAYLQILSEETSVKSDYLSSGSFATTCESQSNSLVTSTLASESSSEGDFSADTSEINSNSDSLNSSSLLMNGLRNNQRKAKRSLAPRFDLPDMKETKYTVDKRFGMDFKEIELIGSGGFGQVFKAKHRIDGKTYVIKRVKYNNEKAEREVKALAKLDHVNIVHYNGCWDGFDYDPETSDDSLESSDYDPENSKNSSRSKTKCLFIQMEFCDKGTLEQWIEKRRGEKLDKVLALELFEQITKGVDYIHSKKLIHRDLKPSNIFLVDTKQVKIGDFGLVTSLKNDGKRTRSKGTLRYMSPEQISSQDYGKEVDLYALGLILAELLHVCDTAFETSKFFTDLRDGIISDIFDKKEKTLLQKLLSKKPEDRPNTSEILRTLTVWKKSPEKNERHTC
T3 sequence (P0C1S8 whole entry): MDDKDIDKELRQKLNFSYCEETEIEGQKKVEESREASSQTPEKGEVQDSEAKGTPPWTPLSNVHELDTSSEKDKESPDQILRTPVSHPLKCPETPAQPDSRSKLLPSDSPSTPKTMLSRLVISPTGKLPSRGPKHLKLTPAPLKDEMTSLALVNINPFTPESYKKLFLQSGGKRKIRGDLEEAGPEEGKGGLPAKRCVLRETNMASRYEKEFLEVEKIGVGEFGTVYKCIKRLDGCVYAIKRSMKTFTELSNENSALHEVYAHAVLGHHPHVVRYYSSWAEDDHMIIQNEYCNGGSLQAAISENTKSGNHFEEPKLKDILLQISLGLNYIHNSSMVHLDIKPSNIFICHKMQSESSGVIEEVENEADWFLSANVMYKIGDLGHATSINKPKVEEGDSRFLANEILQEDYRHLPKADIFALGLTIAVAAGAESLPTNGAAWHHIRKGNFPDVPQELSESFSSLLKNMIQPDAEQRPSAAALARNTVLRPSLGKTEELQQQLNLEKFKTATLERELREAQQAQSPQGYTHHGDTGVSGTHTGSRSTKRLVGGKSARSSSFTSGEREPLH
T4 sequence (Q96RR4 whole entry): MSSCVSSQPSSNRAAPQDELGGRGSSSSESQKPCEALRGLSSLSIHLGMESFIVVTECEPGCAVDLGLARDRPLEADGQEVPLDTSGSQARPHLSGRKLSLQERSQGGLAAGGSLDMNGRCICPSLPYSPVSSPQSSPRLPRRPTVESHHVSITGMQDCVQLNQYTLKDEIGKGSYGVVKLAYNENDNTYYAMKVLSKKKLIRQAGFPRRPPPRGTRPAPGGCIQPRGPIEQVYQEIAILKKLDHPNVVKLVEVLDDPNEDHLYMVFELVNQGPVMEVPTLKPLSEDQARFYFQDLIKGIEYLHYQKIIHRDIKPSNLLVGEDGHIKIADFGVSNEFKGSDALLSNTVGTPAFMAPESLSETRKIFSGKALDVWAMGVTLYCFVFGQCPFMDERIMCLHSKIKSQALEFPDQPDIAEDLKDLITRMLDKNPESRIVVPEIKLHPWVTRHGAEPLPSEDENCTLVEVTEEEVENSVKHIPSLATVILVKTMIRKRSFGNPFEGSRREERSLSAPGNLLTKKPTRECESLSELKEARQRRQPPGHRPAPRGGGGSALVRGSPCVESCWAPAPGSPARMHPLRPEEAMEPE
T7 sequence (Q8NG66 whole entry): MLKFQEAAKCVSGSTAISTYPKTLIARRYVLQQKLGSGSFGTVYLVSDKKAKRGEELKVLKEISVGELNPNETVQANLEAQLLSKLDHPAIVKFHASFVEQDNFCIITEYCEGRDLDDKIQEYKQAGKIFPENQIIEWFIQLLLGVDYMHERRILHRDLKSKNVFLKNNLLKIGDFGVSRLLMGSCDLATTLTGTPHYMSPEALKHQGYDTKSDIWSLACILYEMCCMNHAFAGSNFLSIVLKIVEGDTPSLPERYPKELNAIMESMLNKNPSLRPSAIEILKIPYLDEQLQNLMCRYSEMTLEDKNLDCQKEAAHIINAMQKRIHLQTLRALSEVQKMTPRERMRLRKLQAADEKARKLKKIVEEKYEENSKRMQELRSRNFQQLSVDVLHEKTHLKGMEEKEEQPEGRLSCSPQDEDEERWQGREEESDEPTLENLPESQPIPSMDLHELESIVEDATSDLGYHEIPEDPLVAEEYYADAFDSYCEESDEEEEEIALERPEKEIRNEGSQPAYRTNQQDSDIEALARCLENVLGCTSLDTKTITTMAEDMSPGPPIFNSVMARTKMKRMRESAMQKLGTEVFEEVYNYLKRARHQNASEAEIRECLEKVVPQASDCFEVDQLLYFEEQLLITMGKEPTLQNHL
T13 sequence (O75385 whole entry): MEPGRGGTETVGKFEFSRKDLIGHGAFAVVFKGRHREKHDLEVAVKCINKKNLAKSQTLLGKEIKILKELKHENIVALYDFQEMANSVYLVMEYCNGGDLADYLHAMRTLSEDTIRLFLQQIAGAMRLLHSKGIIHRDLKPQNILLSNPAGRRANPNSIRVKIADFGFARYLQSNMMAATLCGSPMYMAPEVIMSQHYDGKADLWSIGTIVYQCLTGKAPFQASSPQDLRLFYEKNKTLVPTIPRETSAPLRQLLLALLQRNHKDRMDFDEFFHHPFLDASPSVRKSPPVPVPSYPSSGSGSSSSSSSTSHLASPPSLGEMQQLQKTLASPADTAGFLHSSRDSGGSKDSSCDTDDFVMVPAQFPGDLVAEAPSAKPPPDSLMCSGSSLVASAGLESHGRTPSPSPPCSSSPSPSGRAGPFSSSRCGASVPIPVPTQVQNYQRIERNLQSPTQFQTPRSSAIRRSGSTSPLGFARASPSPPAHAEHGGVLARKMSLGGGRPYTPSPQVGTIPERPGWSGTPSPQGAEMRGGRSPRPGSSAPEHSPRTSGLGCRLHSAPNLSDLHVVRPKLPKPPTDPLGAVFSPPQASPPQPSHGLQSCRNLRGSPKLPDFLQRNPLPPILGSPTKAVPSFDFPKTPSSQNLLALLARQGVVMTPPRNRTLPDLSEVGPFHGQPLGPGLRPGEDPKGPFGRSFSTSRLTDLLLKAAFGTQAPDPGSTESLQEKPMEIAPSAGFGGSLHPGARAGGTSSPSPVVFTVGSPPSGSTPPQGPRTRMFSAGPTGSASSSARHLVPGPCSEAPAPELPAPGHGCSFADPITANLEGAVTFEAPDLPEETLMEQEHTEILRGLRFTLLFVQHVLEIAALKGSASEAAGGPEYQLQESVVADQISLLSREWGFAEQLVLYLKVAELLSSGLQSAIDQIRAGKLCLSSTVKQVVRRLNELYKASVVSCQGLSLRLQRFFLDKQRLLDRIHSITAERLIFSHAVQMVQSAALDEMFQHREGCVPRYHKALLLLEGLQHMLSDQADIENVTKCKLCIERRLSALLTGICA
T10 sequence (O75116 whole entry): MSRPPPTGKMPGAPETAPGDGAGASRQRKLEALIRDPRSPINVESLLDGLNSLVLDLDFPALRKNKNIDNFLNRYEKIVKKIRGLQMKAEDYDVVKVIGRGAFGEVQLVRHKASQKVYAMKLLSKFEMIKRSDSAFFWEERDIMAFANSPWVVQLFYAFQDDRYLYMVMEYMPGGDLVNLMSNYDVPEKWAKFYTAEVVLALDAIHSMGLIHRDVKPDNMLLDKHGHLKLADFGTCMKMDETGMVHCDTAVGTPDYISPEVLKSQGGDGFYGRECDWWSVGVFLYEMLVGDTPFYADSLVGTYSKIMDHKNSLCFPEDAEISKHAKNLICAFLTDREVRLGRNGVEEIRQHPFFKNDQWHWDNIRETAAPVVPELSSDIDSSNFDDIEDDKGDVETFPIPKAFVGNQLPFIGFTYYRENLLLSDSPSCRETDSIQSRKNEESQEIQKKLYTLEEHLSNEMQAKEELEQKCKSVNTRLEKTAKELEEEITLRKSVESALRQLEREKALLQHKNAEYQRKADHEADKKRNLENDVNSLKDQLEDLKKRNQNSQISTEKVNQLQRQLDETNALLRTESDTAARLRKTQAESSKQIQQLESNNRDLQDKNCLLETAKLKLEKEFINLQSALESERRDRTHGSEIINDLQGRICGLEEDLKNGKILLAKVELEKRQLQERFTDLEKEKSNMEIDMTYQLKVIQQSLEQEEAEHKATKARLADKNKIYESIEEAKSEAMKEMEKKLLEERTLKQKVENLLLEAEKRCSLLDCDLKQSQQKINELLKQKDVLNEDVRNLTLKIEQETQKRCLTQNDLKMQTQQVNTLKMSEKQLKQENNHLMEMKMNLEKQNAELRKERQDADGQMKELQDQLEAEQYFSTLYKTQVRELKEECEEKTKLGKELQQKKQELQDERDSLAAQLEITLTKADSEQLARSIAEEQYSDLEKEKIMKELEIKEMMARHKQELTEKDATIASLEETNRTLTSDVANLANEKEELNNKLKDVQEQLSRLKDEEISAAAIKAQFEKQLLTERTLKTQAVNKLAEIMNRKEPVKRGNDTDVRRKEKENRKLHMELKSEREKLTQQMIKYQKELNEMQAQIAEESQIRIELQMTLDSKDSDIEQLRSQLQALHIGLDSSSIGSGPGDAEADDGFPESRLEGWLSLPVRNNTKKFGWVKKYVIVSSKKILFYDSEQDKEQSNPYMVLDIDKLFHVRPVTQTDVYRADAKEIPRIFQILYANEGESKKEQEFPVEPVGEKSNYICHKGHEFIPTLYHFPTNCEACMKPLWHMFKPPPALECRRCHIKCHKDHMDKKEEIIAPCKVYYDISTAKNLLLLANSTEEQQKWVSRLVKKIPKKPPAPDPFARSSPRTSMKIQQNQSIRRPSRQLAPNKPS

With `CN(C)CCNC(=O)c1ccc(-c2ccc(-c3ccc(Cl)cc3)n2-c2ccccc2C(F)(F)F)cc1` [Example 33, 4-[5-(4-chlorophenyl)-1-[2-(trifluoromethyl)phenyl]pyrrol-2-yl]-N-[2-(dimethylamino)ethyl]benzamide Hydrochloride], the remaining activity at 5 µM at EIF2AK2 stood at 90%; at IKBKE, 75%; at WEE2 it was 92%; at CAMKK2, 97%; on SBK1, 61%; at STK16 it was 92%. Also, the remaining activity at 5 µM at NEK11 was 100%; at ERN1 it was 74%; at ULK3 it was 88%; at ROCK2, 100%; at WNK1, 97%; at NEK3, 74%. Moreover, the remaining activity at 5 µM on ULK1 was found to be 84%; at NEK4, 100%. Further, the EC50 in the series on HeLa cells amounted to 61 ± 10 nM. The values for the IC50 in [1], in series [3] and in [4] were 283 nM, 71 nM and 1670 nM, respectively. In addition, the hepatocyte CLint in [2] stood at 10 µL/min/1e6 cells. The “cytochrome P450 inhibition 2D6” value at cytochrome P450 2D6 is over 10 µM. Also, the “cytochrome P450 inhibition 2C9” value on cytochrome P450 2C9 is over 10 µM.

One may read the EC50 as the concentration at which the effect is half-maximal. Broadly, the IC50 is the midpoint of a concentration-inhibition curve. The low end stands for greater potency, the high end for weaker potency. As a reminder, the hepatocyte CLint is the rate of metabolic loss divided by the concentration. Read a high hepatocyte CLint as rapid turnover.

(Values after patent publication US11208405B2, “Pyrrole derivatives as PLK1 inhibitors” (SENTINEL ONCOLOGY LIMITED, priority 2017, dated 2021).)
